Measurements taken from patent US11096926B2, “(3AR)-1,3A,8-trimethyl-1,2,3,3A,8,8A-hexahydropyrrolo[2,3-b]indol-5-yl phenylcarbamate and methods of treating or preventing neurodegeneration” (priority 2011, dated 2021).
Read-outs that look alike come from different tables or passages of the source.

Assays:
APP [1] = assay: 35S incorporation into newly synthesized APP in SH-SY-5Y cells; format: cell-based; settings: SH-SY-5Y human neuroblastoma cells; 10 min 35S incorporation; APP mRNA and total protein synthesis not altered
Protocol: FIG. 5A: 10 min ^35S incorporation into APP, in SH-SY-5Y human neuroblastoma cells. FIG. 5B: newly synthesized total protein. FIG. 5C: newly synthesized APP. FIG. 5D: APP mRNA.

APP [2] = format: in vivo, mouse; settings: trisomy Down Syndrome (Ts65Dn) mice; to control non-DS brain levels
AChE = target: T1, AChE (Mus musculus, UniProt P21836); assay: Brain AChE levels in Ts65Dn mice; format: in vivo; settings: 50 mg/kg
T1 construct: from tissue; host or cells: brain of Ts65Dn mice
T1 sequence (P21836 32-614): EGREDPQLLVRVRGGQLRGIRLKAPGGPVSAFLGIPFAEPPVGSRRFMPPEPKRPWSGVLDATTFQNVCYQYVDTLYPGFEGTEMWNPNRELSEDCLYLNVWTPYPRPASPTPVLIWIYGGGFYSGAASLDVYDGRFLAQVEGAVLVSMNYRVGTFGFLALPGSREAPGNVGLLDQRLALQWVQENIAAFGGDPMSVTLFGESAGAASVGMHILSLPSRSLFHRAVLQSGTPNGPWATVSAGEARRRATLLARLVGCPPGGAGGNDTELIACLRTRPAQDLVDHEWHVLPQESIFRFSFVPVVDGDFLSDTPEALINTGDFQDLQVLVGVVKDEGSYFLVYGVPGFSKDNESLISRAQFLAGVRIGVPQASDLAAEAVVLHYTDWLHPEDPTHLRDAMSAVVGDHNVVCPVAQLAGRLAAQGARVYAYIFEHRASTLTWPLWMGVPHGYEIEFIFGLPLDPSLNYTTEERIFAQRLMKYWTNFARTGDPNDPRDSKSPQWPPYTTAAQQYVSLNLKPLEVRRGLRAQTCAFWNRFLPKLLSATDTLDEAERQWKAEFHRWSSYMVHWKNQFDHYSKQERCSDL
Source text: (§1) FIG. 17 is a series of graphs illustrating effects of Compound (1) in Ts65Dn mouse model of Down Syndrome.

NGF = assay: Brain NGF levels in Ts65Dn mice; format: in vivo, mouse
Source text: as §1

APP [3] = format: in vivo, mouse; settings: APP23 transgenic AD mice; 25 mg daily for 14 days; mRNA levels not lowered
Protocol: APP23 transgenic AD mice were treated with 25 mg of Compound (1) daily for 14 days.

APP, Aβ40 and Aβ42 = APP, Aβ40 and Aβ42 levels in mouse brain (Western Blot, ELISA); format: in vivo; settings: once daily x 21 day
Protocol: FIG. 15 is a series of graphs illustrating the in vivo reduction of APP, Aβ40 and Aβ42 levels in mouse brain by Compound (1). Drug was administered once daily×21 day: APP—Western Blot, Aβ—Specific ELISA for 1-40 and 1-42 forms.

[4] = Human pharmacokinetics in plasma and CSF (proof of mechanism study, MCI patients); format: in vivo; settings: for half-life: human, po
Protocol: (§2) For a proof of mechanism study of Compound (1), patients suffering from mild cognitive impairment (MCI) were treated with Compound (1) for 10 days. The patients were dosed with 4×60 mg Compound (1) for 10 days orally, using Posiphen® powder filled into gelatin capsules. Cerebrospinal fluid (CSF) and plasma were drawn from the subjects over a 12 hour period on day 0 and day 11.
Pharmacokinetic analysis was performed for Compound W) and selected metabolites: N^1-norposiphen, N^8-norposiphen, and N^1,N^8-norposiphen. Pharmacodynamic analysis was performed for APP protein and other AD associated biomarkers in CSF and plasma: APP, Aβ1-40, Aβ1-42, N-APP, AChEI, BChEI, Tau/p-Tau, NGF, BDNF, and inflammatory factors.
(d) in humans, plasma and CSF were analyzed 0 to 12 hours, after administration of the drug.
The levels of Compound (1) and selected metabolites in human plasma (FIG. 22A) and human CSF (FIG. 22B) were determined. […] This was corroborated by measuring half-life of Posiphen® in brains of mice.

[5] = Binding to brain proteins, rat brain homogenate; format: in vitro ADME
Protocol: (§3) The binding of Compound (t) and metabolites to brain proteins was determined to be ˜96% (rat and human brain homogenate).

[6] = Binding to brain proteins, human brain homogenate; format: in vitro ADME
Protocol: as §3

Tau = Tau levels before and after 10 days treatment in MCI patients; format: in vivo, human; settings: given for 10 days
Protocol: FIG. 24 is a graph illustrating the comparison of Tau before and after treatment with Compound (1) in healthy volunteers.
as §2

alpha-Syn = settings: dopaminergic SH-SY5Y cells; quantitative Western blotting, standardized for β-actin; read-out: efficacy on alpha-Syn expression (IC50); cited from earlier work
[7] = Plasma pharmacokinetics of phenserine in men and women; settings: 15 mg dose on day 35 of study
Source text: PT: phenserine; N^8: N^8-desamine phenserine; N^1: N^1-desmethyl phenserine; N^1,N^8: N^1,N^8-desmethyl phenserine.

SMILES | newly synthesized APP (APP [1]) | lowering of APP levels in brain (APP [2]) | lowering of brain AChE levels (AChE) | NGF levels in brain (NGF) | APP levels in the brain (APP [3]) | APP, Aβ40 and Aβ42 levels in mouse brain (APP, Aβ40 and Aβ42) | half-life ([4]; CSF, read-out: half-life in human CSF (converted)) | half-life ([4]; plasma, read-out: half-life in human plasma (converted)) | half-life in human plasma ([4]; oral, listed as Posiphen) | binding to brain proteins [5] | binding to brain proteins [6] | Tau levels (Tau) | IC50 (alpha-Syn) | half life (plasma) [7]
CN1CC[C@]2(C)c3cc(OC(=O)Nc4ccccc4)ccc3N(C)C12 (stereo partly drawn) [Compound (1), (3aR)-1,3a,8-trimethyl-1,2,3,3a,8,8a-hexahydropyrrolo[2,3-b]indol-5-yl phenylcarbamate] | reduces newly synthesized APP | 30% | 50% | elevated | lowered APP levels | reduction | ~12 h | ~5 h | 5 h | ~96% | ~96% | lowers their Tau levels back to the levels found in healthy volunteers | < 5 µM | –
CN1CC[C@@]2(C)c3cc(OC(=O)Nc4ccccc4)ccc3N(C)[C@@H]12 [phenserine] | – | – | – | – | – | – | – | – | – | – | – | – | – | less than one
